These results are taken from patent US10266539B2, “Polymorph of Syk inhibitors” (Gilead Connecticut, Inc., priority 2013, dated 2019).

SMILES strings stand for the structures.

Data set [1] is described as follows: Moisture sorption isotherms (Example 6B, Hiden IGASorp / SMS DVS Intrinsic). The data set is classed as physicochemical. The following applies: for Water absorbed up to 90% RH: 25 °C. The protocol:
Sorption isotherms were obtained using a Hiden IGASorp moisture sorption analyser, controlled by CFRSorp software. The sample temperature was maintained at 25° C. by a Huber re-circulating water bath. The humidity was controlled by mixing streams of dry and wet nitrogen, with a total flow rate of 250 ml/min. The relative humidity (RH) was measured by a calibrated Vaisala RH probe (dynamic range of 0-95% RH), located near the sample. The weight change, (mass relaxation) of the sample as a function of % RH was constantly monitored by the microbalance (accuracy±0.001 mg).
10-20 mg of sample was placed in a tared mesh stainless steel basket under ambient conditions. The sample was loaded and unloaded at 40% RH and 25° C. (typical room conditions).
A moisture sorption isotherm was performed as outlined in Table 1 below (2 scans giving 1 complete cycle). The standard isotherm was performed at 25° C. at 10% RH intervals over a 0-90% RH range.
The software uses a least squares minimization procedure together with a model of the mass relaxation, to predict an asymptotic value. The measured mass relaxation value must be within 5% of that predicted by the software, before the next % RH value is selected. The minimum equilibration time was set to 1 hour and the maximum to 4 hours. […] The sample was recovered after completion of the isotherm and re-analyzed by XRPD.
In other cases, sorption isotherms were also obtained using a SMS DVS Intrinsic moisture sorption analyser, controlled by DVS Intrinsic Control software v1.0.1.2 (or v 1.0.1.3). […] The humidity was controlled by mixing streams of dry and wet nitrogen, with a total flow rate of 200 ml/min The relative humidity was measured by a calibrated Rotronic probe (dynamic range of 1.0-100% RH), located near the sample. The weight change, (mass relaxation) of the sample as a function of % RH was constantly monitored by the microbalance (accuracy±0.005 mg).
5-20 mg of sample was placed in a tared mesh stainless steel basket under ambient conditions. […] The sample was recovered after completion of the isotherm and re-analyzed by XRPD.

The nature of data set [2]: Solubility in water. The data set is classed as physicochemical. The conditions noted are these: final pH of the water solubility sample.
Data set [3] is described as follows: Hygroscopicity by dynamic vapor sorption (Example 6A, Q5000SA). The class given is physicochemical. The following applies: after full sorption/desorption cycle. The method, then:
Hygroscopicity of polymorph Form 3 and polymorph Form 7 at 25° C. was determined by dynamic vapor sorption (DVS) using an automated vapor sorption balance (Q5000SA; TA instruments, New Castle, Del.). Hygroscopicity was studied as a function of relative humidity (RH) over the range of 0 to 90%. Approximately 10 mg of solid sample was placed directly onto the 13 mm quartz DVS sample cup and equilibrated at 0% relative humidity (RH) until a constant weight was achieved. After equilibration, the RH was increased in increments of 10% to reach 90%, and the water sorption was monitored. For desorption, the relative humidity was deceased in a similar manner to accomplish a full sorption/desorption cycle.
For all experiments, the instrument was operated in dm/dt mode (mass variation over time) to determine when equilibrium was reached. A fixed dm/dt value of 0.0010% min^−1 was selected for all RH segments. A maximum stage of 360 minutes and a minimum stage of 60 minutes were selected for these experiments.

The nature of data set [4]: PK study in pentagastrin- or famotidine-pretreated dogs. The conditions noted are these: famotidine-pretreated dogs, similar tablet formulation.
Procedure: Pentagastrin pretreatment (6 μg/kg intramuscular injection 30 minutes prior to test formulation dosing) in fasted dogs was used to simulate fasting gastric pH in humans. Famotidine pretreatment (20 mg orally 1 hour prior to test formulation dosing) in fasted dogs was used to simulate human gastric pH when acid suppressant was co-dosed with test formulation. The tablets of the mono-MSA salt or bis-MSA salt of a compound of Formula I (conventional tablet and spray dried formulation) were orally administered followed by a 30 mL water flush.

With `c1cn2cc(-c3ccc4cn[nH]c4c3)nc(Nc3ccc(N4CCOCC4)cc3)c2n1` [polymorph Form 7], the “Water absorbed up to 90% RH” value in data set [1] (listed as Polymorph Form 7) was around 21 wt. %.
With `c1cn2cc(-c3ccc4cn[nH]c4c3)nc(Nc3ccc(N4CCOCC4)cc3)c2n1` [polymorph Form 3], the “final pH” value in data set [2] is listed as “(final pH <1.5)”. Also, the “Water absorbed up to 90% RH” value in data set [1] (listed as Form 3) is recorded as around 20 wt. %. Also, the “Form by XRPD after DVS analysis” value in data set [1] (after isotherm) is given as “converted to Form 7”. Moreover, the “Form by XRPD at the end of the DVS experiment” value in data set [3] is on record as “converted to Form 7”. Further, the “Increase of AUC0-24 compared to the mono-MSA salt formulation” value in data set [4] is “more than 10 fold”.
